Experimental data from article PMC7734798 (ACS Medicinal Chemistry Letters, 2020).
Several values for one entry are separate records, joined by “and”; a condition that tells them apart may be missing. Equal values may be shown once. Read-outs that look alike come from different tables or passages of the source.

Legend:
Olig2 = test: Oli-Neu proliferation marker Olig2 expression (Western blot); type: cell-based, mouse; settings: Oli-Neu cells, 5 μM, 48 h
Text: (§1) OPC proliferation and migration to the CNS injury site as well as their differentiation are critical steps toward remyelination in MS. HDAC activity plays a crucial role in OPC proliferation/differentiation; therefore, HDAC modulation is widely considered a promising therapeutic target for MS.[30] […] Therefore, we tested the effect of our compounds on OPC proliferation and differentiation, through cell counting, measure of filaments, and analysis of proliferation/differentiation markers (Figure 7).
(§2) Oli-Neu cells were grown in SATO medium (DMEM medium, 2 mM glutamine, 10 μg/ml insulin, 5.5 μg/ml transferrin, 38.72 nM sodium selenite, 100 µM putrescine, 520 nM L-thyroxine (T4), 500 nM triiodo-L-thyronine (T3), 200 nM progesterone, 25 μg/ml of gentamycin) supplemented with 1% heat-inactivated horse serum (HS) in a humidified, 5% CO2 incubator at 37°C. Cell culture medium and all chemicals were from Sigma-Aldrich, except for insulin-transferrin-sodium selenite 100X supplement (Life Technologies Corporation). Cells were plated on 96 well plates, previously coated with 10 μg/mL poly-L-lysine (Sigma-Aldrich; 10 μg/ml) at the density of 2.5 x 10 4/0.2 mL medium/well and treated with increasing concentrations of the compounds (0.5, 1, 5 and 10 μM).
After 24 hours, the viability was evaluated through the MTT assay.
(§3) Oli-Neu cells proliferation and differentiation assay
(§4) 48 hours, for cell counting and measure of filaments, 5 random images for each condition were acquired with an Eclipse TS100 (Nikon) microscope using a 10X objective. Cells number and filament length were measured with Fiji ImageJ2 software. After 48 hours for proliferation and 72 hours of treatment for differentiation analysis, cells were lysed in ice-cold lysis buffer (50 mM Tris-HCl pH 7.4, 1% SDS, 0.05% protease inhibitor cocktail; all from Sigma-Aldrich) and protein content was determined by using the Lowry method. […]

Oli-Neu cells = test: Oli-Neu cell proliferation and differentiation assay: cell counting and measure of filaments; type: cell-based, mouse; settings: 5 μM, 48 h
Text: as §1
as §2, with “μM). […]” for “μM).”
as §3
48 hours, for cell counting and measure of filaments, 5 random images for each condition were acquired with an Eclipse TS100 (Nikon) microscope using a 10X objective. Cells number and filament length were measured with Fiji ImageJ2 software. […]

[1] = test system: primary rat cerebellar granule neurons (CGNs); settings: for cell survival/death in CGNs, % mean ± SE of controls (MTT): 24 h treatment
CNPase = test: Oli-Neu differentiation marker CNPase expression (Western blot); type: cell-based, mouse; settings: Oli-Neu cells, 5 μM, 72 h
Text: as §1, with “7). […]” for “7).”
After 24 hours, the viability was evaluated through the MTT assay. […]
as §4

[2] = PAMPA-BBB permeation assay; settings: PAMPA-BBB prediction
[3] = test system: human liver carcinoma immortalized cell line (HepG2); settings: 24 h treatment
[4] = PAMPA

Row | Compound | cell survival/death in HepG2 cells, % mean ± SE of controls (MTT) ([3]; 5 μM) [%] | cell survival/death in HepG2 cells, % mean ± SE of controls (MTT) ([3]; 10 μM) [%] | cell survival/death in HepG2 cells, % mean ± SE of controls (MTT) ([3]; 25 μM) [%] | cell survival/death in HepG2 cells, % mean ± SE of controls (MTT) ([3]; 50 μM) [%] | cell survival/death in CGNs, % mean ± SE of controls (MTT) ([1]; 5 μM) [%] | cell survival/death in CGNs, % mean ± SE of controls (MTT) ([1]; 10 μM) [%] | cell survival/death in CGNs, % mean ± SE of controls (MTT) ([1]; 25 μM) [%] | cell survival/death in CGNs, % mean ± SE of controls (MTT) ([1]; 50 μM) | also measured
1 | CCCC(CCC)C(=O)O [VPA, valproic acid, reference compound] | – | – | – | – | – | – | – | – | expression of Olig2, marker of OPCs proliferation (Olig2): marked decrease; Oli-Neu cell number (Oli-Neu cells): decrease cell number; Oli-Neu filament length (Oli-Neu cells): parallel increase in filament length; neurotoxicity profile in CGNs (in words) ([1]; 5-50 μM, 24 h): negligible neurotoxicity; expression of CNPase, marker of differentiation (CNPase): significant increase
2 | CNC(=C[N+](=O)[O-])NCCSCc1ccc(CN(C)C)o1 [ranitidine, reference compound] | – | – | – | – | – | – | – | – | BBB penetration estimation, CNS (+/−) [2]: CNS –
3 | CC/C=C\C/C=C\C/C=C\CCCCCCCC(=O)OCCNC(=O)C(CCC)CCC [compound 3] | 86 ± 10 | 92 ± 3 | 84 ± 10 | 75 ± 13 | 119 ± 17 | 116 ± 3 | 99 ± 17 | 41% and 41 ± 6 ^b % | –
4 | CC/C=C\C/C=C\C/C=C\CCCCCCCC(=O)OCCOC(=O)C(CCC)CCC [compound 4] | 95 ± 14 | 99 ± 5 | 75 ± 12 | 74 ± 12 | 118 ± 16 | 114 ± 3 | 71 ± 8 | 45% and 45 ± 8 ^b % | –
5 | CC/C=C\C/C=C\C/C=C\CCCCCCCC(=O)O [ALA, α-linolenic acid, reference compound] | 109 ± 17 | 90 ± 5 | 91 ± 13 | 92 ± 9 | 93 ± 13 | 97 ± 3 | 79 ± 12 | 45% and 45 ± 5 ^b % | –
6 | Nc1c2c(nc3ccccc13)CCCC2 [tacrine] | – | – | – | – | – | – | – | – | BBB penetration estimation, CNS (+/−) [4]: CNS +
